Laboratory results: patent US5580552A, “7-glycosyloxybenzopyran derivative and antiallergic agent containing the derivative as active ingredient” (priority 1994, dated 1996)

How the values were obtained:
[1] = tested on: experimental asthma model (airway resistance); assay: Effect on experimental asthma model in guinea pigs (airway resistance); format: in vivo, guinea pigs (male hartley); settings: Cavia porcellus, 0.5 h; for inhibition in vivo at 50 mg/kg: po, 50 mg/kg oral (TABLE 6)
Method: Effect on experimental asthma model in guinea pigs
The asthma is typical allergic disease and we carried out this pharmacological test by well known experimental asthma model in guinea pigs in order to comfirm that the compounds of the present invention suppress the asthma. In the following, the method of the pharmacological test will be explained.
Method: Male hartley guinea pigs were immunized by intraperitoneal injection of saline (1ml) containing 5 mg of ovalbumine (OVA) three times at interval of one week. 2 weeks after final immunization, the animals were challenged by inhalation of 1% OVA-saline solution for 1 minute and then the airway resistance of the animals were measured for 30 minutes with PULMOS-1 (Medical Interface Project Station Inc.) after the inhalation. The compounds of the present invention (test compounds) suspended in 0.5% CMCNa were given orally at a dose of 50 mg/kg. As positive control group, Disodium Cromoglicate (DSCG), well known anti-allergic agent, in saline were injected at a dose of 20 mg/kg into the vein of the animals. As vehicle control group, only 0.5% CMCNa solution were given orally. The inhibition (%) of the airway resistance in vehicle control group was calculated according to equation 5 and the result was shown in TABLE 6. Each experimental group consisted of 5 guinea pigs. [formula]
A: Maximum airway resistance in vehicle control group
B: Maximum airway resistance in test compounds group or positive control group

[2] = tested on: contact dermatitis induced by picryl chloride; assay: Effect on contact dermatitis induced by picryl chloride in mice; format: in vivo; settings: for inhibition in vivo at 50 mg/kg: 50 mg/kg oral, 1 hour before and 16 hours after challenge, 24 hours after challenge
Method: Effect on contact dermatitis induced by picryl chloride in mice
The delayed type hypersensitization is inhibited by steroid drugs,but can not be effected by known anti-allergic agents. In the following, the method of the pharmacological test will be explained.
Method: Mice, shaved their abdominal skin on previous day, were immunized by applying 0.1 ml of acetone containing 7 mg of picryl chloride to the skin of the abdomen. 7 days after immunization, the thickness of the ear was measured with a dial thickness gauge, then mice were challenged by painting 5 μl of 1% picryl chloride olive oil solution to each side skin of left ear. 24 hours after challenge, the thickness of the left ear was measured again and the increase (%) of thickness was calculated according to equation 2. The compounds of the present invention (test compounds) suspended in 0.5% CMCNa were forcibly administered orally at a dose of 50 mg/kg at 1 hour before and 16 hours after challenge. As vehicle control group, only 0.5% CMCNa solution were administered orally, and as positive control group, Prednisolone, steroid hormone, and Tranilast were administered orally at the doses of 10 mg/kg and 100 mg/kg, respectively.
Increase (%)=(A-B)/B×100 (Equation 2)
A: thickness of the ear at 24 hours after challenge
B: thickness of the ear before challenge
Inhibition (%)=(C-D)/C×100 (equation 3)
C: The increase (%) in vehicle control group
D: The increase (%) in test compounds group or positive control group

[3] = tested on: homologous passive cutaneous anaphylaxis (PCA) reaction; assay: Effect on homologous passive cutaneous anaphylaxis (PCA) reaction in rats; format: in vivo, rats (male wistar); settings: Rattus norvegicus, po, 0.5 h; for inhibition in vivo at 50 mg/kg: 50 mg/kg oral, 1 hour before challenge (TABLE 2)
Method: Effect on homologous passive cutaneous anaphylaxis (PCA) reaction in rats.
This experimental animal model is caused by immediate type allergic reaction namely, antigen-antibody reaction. In the following, the method of this pharmacological test will be explained.
Method: Male wistar rats (9 weeks old) were intradermally administered 0.05 ml of anti-serum against dinitrophenylated ascaris (DNP-As) into two sites on the shaved dorsal skin. 48 hours later, 7-glycosyloxybenzopyran derivatives (test compounds) suspended in 0.5% sodium carboxymethylcellulose (CMCNa) were given orally at a dose of 50 mg/kg to the animals. One hour after administration of Test compounds, the animals were induced anaphylaxis by injection of saline (1 ml) dissolving 5 mg of Evans Blue and 1 mg of Trinitrophenylated ascaris (TNP-As) into the tail vein of the animals. 30 minutes after induction of anaphylaxis, animals were anesthetized by ether and killed by bleeding, and were flayed dorsal skin. The determination of extravasated dye was performed according to the method of Katayama et al. (Microbiol. Immunol., Vol.22, P 89-101, 1978). As vehicle control group, only 0.5% CMCNa solution was administered orally, and as positive control group, Tranilast suspended in 0.5% CMCNa was administered orally at a dose of 100 mg/kg to the animals with the same method as the test compounds groups. Each experimental group consisted of 5 rats. [formula]

[4] = Mus musculus, po, 24 h, read-out: Inhibition (%) against the increase of ear thickness

SMILES: O=C(O)c1cc(=O)c2c(OCC(O)COc3cccc4oc(C(=O)O)cc(=O)c34)cccc2o1 [DSCG, Disodium Cromoglicate, reference compound]
- inhibition in vivo at 20 mg/kg ([1]; iv, positive control DSCG, 20 mg/kg into the vein (TABLE 6)): 51.2%

SMILES: C[C@]12C=CC(=O)C=C1CC[C@@H]1[C@@H]2[C@@H](O)C[C@@]2(C)[C@H]1CC[C@]2(O)C(=O)CO [Prednisolone, reference compound]
- inhibition in vivo at 10 mg/kg [2, 4]: 63.7%

SMILES: COc1ccc(/C=C/C(=O)Nc2ccccc2C(=O)O)cc1OC [Tranilast, reference compound]
- inhibition in vivo at 100 mg/kg ([2]; Mus musculus, po, 24 h, positive control Tranilast, 100 mg/kg oral, read-out: Inhibition (%) against the increase of ear thickness): 4.3%
- inhibition of delayed type hypersensitization ([2]; Tranilast, 100 mg/kg oral): did not inhibit delayed type hypersensitization
- inhibition in vivo at 100 mg/kg ([3]; positive control, 100 mg/kg oral (TABLE 2)): 54.6%

SMILES: COc1c(O)c2ccc(O[C@@H]3O[C@H](CO)[C@@H](O)[C@H](O)[C@H]3O)cc2oc1=O [compound 3, 3-methoxy-4-hydroxy-7-(β-D-glucopyranosyloxy)-2H-1-benzopyran-2-one]
- inhibition in vivo at 50 mg/kg [2, 4]: 51.3%
- inhibition in vivo at 50 mg/kg [3]: 53.1%
- inhibition in vivo at 50 mg/kg [1]: 63.1%

SMILES: COc1c(O)c2ccc(O[C@H]3O[C@H](CO)[C@@H](O)[C@H](O)[C@@H]3O)cc2oc1=O [compound 8, 3-methoxy-4-hydroxy-7-(α-D-mannopyranosyloxy)-2H-1-benzopyran-2-one]
- inhibition in vivo at 50 mg/kg [2, 4]: 50.3%
- inhibition in vivo at 50 mg/kg [3]: 49.2%
- inhibition in vivo at 50 mg/kg [1]: 59.2%

SMILES: COc1c(O)c2ccc(O[C@@H]3O[C@H](CO)[C@H](O)[C@H](O)[C@H]3O)cc2oc1=O [compound 9, 3-methoxy-4-hydroxy-7-(β-D-galactopyranosyloxy)-2H-1-benzopyran-2-one]
- inhibition in vivo at 50 mg/kg [2, 4]: 52.1%
- inhibition in vivo at 50 mg/kg [3]: 54.5%
- inhibition in vivo at 50 mg/kg [1]: 60.3%

SMILES: CC(=O)Oc1c(O)c2ccc(O[C@@H]3O[C@H](CO)[C@@H](O)[C@H](O)[C@H]3O)cc2oc1=O [compound 11, 3-acetoxy-4-hydroxy-7-(β-D-glucopyranosyloxy)-2H-1-benzopyran-2-one]
- inhibition in vivo at 50 mg/kg [2, 4]: 44.3%
- inhibition in vivo at 50 mg/kg [3]: 43.2%
- inhibition in vivo at 50 mg/kg [1]: 45.7%

SMILES: CCCCCCOc1c(OC(C)=O)c(=O)oc2cc(O[C@@H]3O[C@H](COC(C)=O)[C@H](OC(C)=O)[C@H](OC(C)=O)[C@H]3OC(C)=O)ccc12 [compound 15, 3-acetoxy-4-hexyloxy-7-(tetra-O-acetyl-β-D-galactopyranosyloxy)-2H-1-benzopyran-2-one]
- inhibition in vivo at 50 mg/kg [2, 4]: 41.2%
- inhibition in vivo at 50 mg/kg [3]: 40.1%
- inhibition in vivo at 50 mg/kg [1]: 42.1%

SMILES: CCCCCCCCOc1c(OC(C)=O)c(=O)oc2cc(O[C@@H]3O[C@H](COC(C)=O)[C@@H](OC(C)=O)[C@H](OC(C)=O)[C@H]3OC(C)=O)ccc12 [compound 16, 3-acetoxy-4-octyloxy-7-(tetra-O-acetyl-β-D-glucopyranosyloxy)-2H-1-benzopyran-2-one]
- inhibition in vivo at 50 mg/kg [2, 4]: 43.5%
- inhibition in vivo at 50 mg/kg [3]: 42.3%
- inhibition in vivo at 50 mg/kg [1]: 40.2%

SMILES: CCCCOc1c(O)c(=O)oc2cc(O[C@@H]3O[C@H](CO)[C@H](O)[C@H](O)[C@H]3O)ccc12 [compound 18, 3-hydroxy-4-butoxy-7-(β-D-galactopyranosyloxy)-2H-1-benzopyran-2-one]
- inhibition in vivo at 50 mg/kg [2, 4]: 40.2%
- inhibition in vivo at 50 mg/kg [3]: 42.5%
- inhibition in vivo at 50 mg/kg [1]: 52.3%

SMILES: CCCCCCOc1c(O)c(=O)oc2cc(O[C@@H]3O[C@H](CO)[C@@H](O)[C@H](O)[C@H]3O)ccc12 [compound 19, 3-hydroxy-4-hexyloxy-7-(β-D-glucopyranosyloxy)-2H-1-benzopyran-2-one]
- inhibition in vivo at 50 mg/kg [2, 4]: 47.1%
- inhibition in vivo at 50 mg/kg [3]: 44.9%
- inhibition in vivo at 50 mg/kg [1]: 65.2%

SMILES: CCCCCCOc1c(O)c(=O)oc2cc(O[C@H]3O[C@H](CO)[C@@H](O)[C@H](O)[C@@H]3O)ccc12 [compound 20, 3-hydroxy-4-hexyloxy-7-(α-D-mannopyranosyloxy)-2H-1-benzopyran-2-one]
- inhibition in vivo at 50 mg/kg [2, 4]: 45.2%
- inhibition in vivo at 50 mg/kg [3]: 42.3%
- inhibition in vivo at 50 mg/kg [1]: 55.4%

SMILES: CCCCCCOc1c(O)c(=O)oc2cc(O[C@@H]3O[C@H](CO)[C@H](O)[C@H](O)[C@H]3O)ccc12 [compound 21, 3-hydroxy-4-hexyloxy-7-(β-D-galactopyranosyloxy)-2H-1-benzopyran-2-one]
- inhibition in vivo at 50 mg/kg [2, 4]: 48.9%
- inhibition in vivo at 50 mg/kg [3]: 45.2%
- inhibition in vivo at 50 mg/kg [1]: 63.1%

SMILES: CCCCCCCCOc1c(O)c(=O)oc2cc(O[C@@H]3O[C@H](CO)[C@@H](O)[C@H](O)[C@H]3O)ccc12 [compound 22, 3-hydroxy-4-octyloxy-7-(β-D-glucopyranosyloxy)-2H-1-benzopyran-2-one]
- inhibition in vivo at 50 mg/kg [2, 4]: 47.3%
- inhibition in vivo at 50 mg/kg [3]: 43.6%
- inhibition in vivo at 50 mg/kg [1]: 60.6%

SMILES: CCCCCCCCOc1c(O)c(=O)oc2cc(O[C@@H]3O[C@H](CO)[C@H](O)[C@H](O)[C@H]3O)ccc12 [compound 23, 3-hydroxy-4-octyloxy-7-(β-D-galactopyranosyloxy)-2H-1-benzopyran-2-one]
- inhibition in vivo at 50 mg/kg [2, 4]: 49.3%
- inhibition in vivo at 50 mg/kg [3]: 44.7%
- inhibition in vivo at 50 mg/kg [1]: 61.5%

SMILES: CCCCCCCCOc1c(OCc2ccccc2)c2ccc(O[C@@H]3O[C@H](COCc4ccccc4)[C@@H](OCc4ccccc4)[C@H](OCc4ccccc4)[C@H]3OCc3ccccc3)cc2oc1=O [compound 35]
- inhibition in vivo at 50 mg/kg [2, 4]: 40.5%
- inhibition in vivo at 50 mg/kg [3]: 42.2%
- inhibition in vivo at 50 mg/kg [1]: 38.2%

SMILES: CCCCOc1c(O)c2ccc(O[C@@H]3O[C@H](CO)[C@@H](O)[C@H](O)[C@H]3O)cc2oc1=O [compound 37]
- inhibition in vivo at 50 mg/kg [2, 4]: 53.9%
- inhibition in vivo at 50 mg/kg [3]: 55.1%
- inhibition in vivo at 50 mg/kg [1]: 68.2%

SMILES: CCCCCCOc1c(O)c2ccc(O[C@@H]3O[C@H](CO)[C@@H](O)[C@H](O)[C@H]3O)cc2oc1=O [compound 38]
- inhibition in vivo at 50 mg/kg [2, 4]: 63.7%
- inhibition in vivo at 50 mg/kg [3]: 59.3%
- inhibition in vivo at 50 mg/kg [1]: 75.5%

SMILES: CCCCCCCCOc1c(O)c2ccc(O[C@@H]3O[C@H](CO)[C@@H](O)[C@H](O)[C@H]3O)cc2oc1=O [compound 39]
- inhibition in vivo at 50 mg/kg [2, 4]: 65.1%
- inhibition in vivo at 50 mg/kg [3]: 62.2%
- inhibition in vivo at 50 mg/kg [1]: 77.8%

SMILES: CCCCCCCCCCOc1c(O)c2ccc(O[C@@H]3O[C@H](CO)[C@@H](O)[C@H](O)[C@H]3O)cc2oc1=O [compound 40]
- inhibition in vivo at 50 mg/kg [2, 4]: 62.1%
- inhibition in vivo at 50 mg/kg [3]: 57.3%
- inhibition in vivo at 50 mg/kg [1]: 73.1%

SMILES: CCCCCCCCCCCCOc1c(O)c2ccc(O[C@@H]3O[C@H](CO)[C@@H](O)[C@H](O)[C@H]3O)cc2oc1=O [compound 41]
- inhibition in vivo at 50 mg/kg [2, 4]: 60.1%
- inhibition in vivo at 50 mg/kg [3]: 55.4%
- inhibition in vivo at 50 mg/kg [1]: 70.2%

SMILES: CC(C)Oc1c(O)c2ccc(O[C@@H]3O[C@H](CO)[C@@H](O)[C@H](O)[C@H]3O)cc2oc1=O [compound 42]
- inhibition in vivo at 50 mg/kg [2, 4]: 58.3%
- inhibition in vivo at 50 mg/kg [3]: 56.4%
- inhibition in vivo at 50 mg/kg [1]: 68.5%

SMILES: CC1CCC(Oc2c(O)c3ccc(O[C@@H]4O[C@H](CO)[C@@H](O)[C@H](O)[C@H]4O)cc3oc2=O)CC1 (some centres unmarked) [compound 43]
- inhibition in vivo at 50 mg/kg [2, 4]: 55.4%
- inhibition in vivo at 50 mg/kg [3]: 57.9%
- inhibition in vivo at 50 mg/kg [1]: 70.7%
